Assay results taken from ChEMBL document CHEMBL5338704, “Discovery of novel phenylhydrazone-based oxindole-thiolazoles as potent antibacterial agents toward Pseudomonas aeruginosa” (Eur J Med Chem, 2022).
Converted amounts (≈) assume the structure as drawn. The source made the active and inactive calls. No cut-off for these calls is given here.

Key:
[1] = system: Acinetobacter baumannii; experiment: Antibacterial activity against Acinetobacter baumannii assessed as inhibition of bacterial growth by micro-broth dilution assay; assay type: functional
[2] = system: Staphylococcus aureus; experiment: Antibacterial activity against methicillin resistant Staphylococcus aureus assessed as inhibition of bacterial growth by micro-broth dilution assay; assay type: functional
[3] = system: Staphylococcus aureus; experiment: Antibacterial activity against Staphylococcus aureus ATCC 29213 assessed as inhibition of bacterial growth by micro-broth dilution assay; assay type: functional
[4] = system: Escherichia coli; experiment: Antibacterial activity against Escherichia coli ATCC 25922 assessed as inhibition of bacterial growth by micro-broth dilution assay; assay type: functional
[5] = system: Enterococcus faecalis; experiment: Antibacterial activity against Enterococcus faecalis assessed as inhibition of bacterial growth by micro-broth dilution assay; assay type: functional
[6] = system: Pseudomonas aeruginosa; experiment: Antibacterial activity against Pseudomonas aeruginosa assessed as inhibition of bacterial growth by micro-broth dilution assay; assay type: functional
[7] = system: Klebsiella pneumoniae; experiment: Antibacterial activity against Klebsiella pneumoniae assessed as inhibition of bacterial growth by micro-broth dilution assay; assay type: functional
[8] = system: Pseudomonas aeruginosa; experiment: Antibacterial activity against Pseudomonas aeruginosa ATCC 27853 assessed as inhibition of bacterial growth by micro-broth dilution assay; assay type: functional
[9] = system: Acinetobacter baumannii; experiment: Potency index, ratio of norfloxacin MIC to test compound MIC for antibacterial activity against Acinetobacter baumannii assessed as inhibition of bacterial growth by micro-broth dilution assay; assay type: functional
[10] = Hemolytic activity in RBC (unknown origin) assessed as hemolysis; assay type: toxicity, cell-based, Erythrocyte; details: red blood cells (erythrocytes)
[11] = system: Staphylococcus aureus; experiment: Antibacterial activity against Staphylococcus aureus ATCC 25923 assessed as inhibition of bacterial growth by micro-broth dilution assay; assay type: functional
[12] = system: Staphylococcus aureus; experiment: Antibacterial activity against Staphylococcus aureus assessed as inhibition of bacterial growth by micro-broth dilution assay; assay type: functional
[13] = system: Escherichia coli; experiment: Antibacterial activity against Escherichia coli assessed as inhibition of bacterial growth by micro-broth dilution assay; assay type: functional
[14] = system: Pseudomonas aeruginosa; experiment: Induction of intracellular ROS accumulation in Pseudomonas aeruginosa assessed increase in fluorescence intensity; assay type: functional, organism-based
[15] = system: Pseudomonas aeruginosa; experiment: Induction of resistance development in Pseudomonas aeruginosa ATCC 27853 assessed as fold increase in MIC treated over 30 serial passages; assay type: functional
[16] = system: Pseudomonas aeruginosa; experiment: Antibacterial activity against Pseudomonas aeruginosa assessed as reduction in LDH activity at 8 times MIC; assay type: functional; design: scale not given: the % may be the effect or the level left
[17] = system: Pseudomonas aeruginosa; experiment: Antibacterial activity against Pseudomonas aeruginosa ATCC 27853 assessed as inhibition of bacterial growth measured after 6 hrs; assay type: functional, organism-based
[18] = system: Cell membrane; experiment: Induction of cytoplasmic membrane depolarization in Pseudomonas aeruginosa assessed as increase in fluorescence intensity MIC by DiSC35 dye based fluorescence analysis; assay type: subcellular
[19] = system: Cell membrane; experiment: Induction of inner membrane damage in Pseudomonas aeruginosa incubated for 6 hrs by Calcein AM dye based fluorescence based assay; assay type: subcellular
[20] = system: Cell membrane; experiment: Induction of outer membrane permeabilization in Pseudomonas aeruginosa assessed as increase in fluorescence intensity at 0.5 to 8 microg/ml by NPN-dye based fluorescence analysis; details: dose 0.5-8 µg/ml
[21] = system: Cell membrane; experiment: Induction of inner membrane damage in Pseudomonas aeruginosa assessed as increase in red fluorescence cells at 0.5 to 8 times MIC incubated for 6 hrs by Calcein AM dye based fluorescence based assay; assay type: subcellular
[22] = system: Cell membrane; experiment: Induction of cell membrane damage in Pseudomonas aeruginosa assessed as increase in protein leakage; assay type: subcellular
[23] = Selectivity index, ratio of HC50 for hemolytic activity in RBC (unknown origin) assessed as hemolysis to MIC for antibacterial activity against Pseudomonas aeruginosa assessed as inhibition of bacterial growth by micro-broth dilution assay; assay type: toxicity; details: red blood cells (erythrocytes)
[24] = system: Pseudomonas aeruginosa; experiment: Antibacterial activity against Pseudomonas aeruginosa ATCC 27853 assessed as inhibition of bacterial growth at 1 times MIC measured upto 14 hrs; assay type: functional, organism-based
[25] = system: DNA; experiment: Binding affinity to Pseudomonas aeruginosa DNA; assay type: nucleic-acid assay
[26] = system: Cell membrane; experiment: Induction of inner membrane damage in Pseudomonas aeruginosa assessed as decrease in green fluorescence cells at 0.5 to 8 times MIC incubated for 6 hrs by Calcein AM dye based fluorescence based assay; assay type: subcellular
[27] = system: Pseudomonas aeruginosa; experiment: Antibacterial activity against Pseudomonas aeruginosa assessed as […] inactivation at 0.5 to 8 times MIC by alamar blue staining based analysis; assay type: functional, organism-based
[28] = system: Pseudomonas aeruginosa; experiment: Antibacterial activity against Pseudomonas aeruginosa assessed as reduction in LDH activity at 0.5 to 8 times MIC; assay type: functional, organism-based
[29] = system: Pseudomonas aeruginosa; experiment: Induction of oxidative stress in Pseudomonas aeruginosa assessed as decrease in GSH activity at 0.5 to 8 times MIC by Ellman's assay; assay type: functional, organism-based
[30] = system: Pseudomonas aeruginosa; experiment: Potency index, ratio of norfloxacin MIC to test compound MIC for antibacterial activity against Pseudomonas aeruginosa assessed as inhibition of bacterial growth by micro-broth dilution assay; assay type: functional
[31] = system: Pseudomonas aeruginosa; experiment: Inhibition of biofilm formation in Pseudomonas aeruginosa by crystal violet staining based analysis; assay type: functional, organism-based; details: dose 0.5-8 µg/ml
[32] = system: Cell membrane; experiment: Induction of outer membrane permeabilization in Pseudomonas aeruginosa assessed as increase in fluorescence intensity by NPN-dye based fluorescence analysis; assay type: subcellular; details: dose 0.5-8 µg/ml
[33] = system: Pseudomonas aeruginosa; experiment: Inhibition of biofilm formation in Pseudomonas aeruginosa at 0.5 to 8 microg/ml by crystal violet staining based analysis; assay type: functional; details: dose 0.5-8 µg/ml; at 0.5 to 8 µg/mL
[34] = system: Cell membrane; experiment: Induction of cell membrane damage in Pseudomonas aeruginosa assessed as increase in nucleic acid leakage at 0.5 to 8 times MIC; assay type: subcellular
[35] = system: Pseudomonas aeruginosa; experiment: Induction of resistance development in Pseudomonas aeruginosa ATCC 27853 treated over 30 serial passages; assay type: functional, organism-based
[36] = system: Cell membrane; experiment: Induction of cytoplasmic membrane depolarization in Pseudomonas aeruginosa assessed as increase in fluorescence intensity at 0.5 to 4 times MIC by DiSC35 dye based fluorescence analysis; assay type: subcellular; details: time 30.0 min, TDE = time-dependent effect
[37] = system: DNA; experiment: Binding affinity to Pseudomonas aeruginosa DNA assessed as reduction in acridine orange-DNA complex formation by competitive binding assay; assay type: nucleic-acid assay
[38] = system: Pseudomonas aeruginosa; experiment: Inhibition of biofilm formation in Pseudomonas aeruginosa assessed as removal of mature biofilm by crystal violet staining based analysis; assay type: functional, organism-based; details: dose 0.5-8 µg/ml
[39] = system: Pseudomonas aeruginosa; experiment: Antibacterial activity against Pseudomonas aeruginosa ATCC 27853 assessed as inhibition of bacterial growth at 4 times MIC measured upto 14 hrs; assay type: functional, organism-based

## Cn1nnnc1SCC(O)CN1C(=O)/C(=N\Nc2ccccc2)c2ccccc21 (centres undefined)
[1]
  MIC: 2 µg/mL (≈ 4.88 µM)
[2]
  MIC: 16 µg/mL (≈ 39.1 µM)
[3]
  MIC: 128 µg/mL (≈ 313 µM)
[4]
  MIC: 16 µg/mL (≈ 39.1 µM)
[5]
  MIC: 32 µg/mL (≈ 78.1 µM)
[6]
  MIC: 16 µg/mL (≈ 39.1 µM)
[7]
  MIC: 2 µg/mL (≈ 4.88 µM)
[8]
  MIC: 32 µg/mL (≈ 78.1 µM)
[9]
  Ratio: 2
[10]
  HC50: 406 µg/mL
[11]
  MIC: 128 µg/mL (≈ 313 µM)
[12]
  MIC: 64 µg/mL (≈ 156 µM)
[13]
  MIC: 32 µg/mL (≈ 78.1 µM)

## Cn1ccnc1SCC(O)CN1C(=O)/C(=N\Nc2ccc(C(=O)O)cc2)c2ccccc21 (centres undefined)
[14]
  Activity: Dose-Dependent Effect
[1]
  MIC: 32 µg/mL (≈ 70.9 µM)
[2]
  MIC: 8 µg/mL (≈ 17.7 µM)
[3]
  MIC: 16 µg/mL (≈ 35.4 µM)
[15]
  fold change (FC): 32
[16]
  Activity: <15%
[17]
  Activity: Active
[4]
  MIC: 4 µg/mL (≈ 8.86 µM)
[18]
  Activity: Dose-Dependent Effect
[19]
  Activity: Dose-Dependent Effect
[5]
  MIC: 4 µg/mL (≈ 8.86 µM)
[6]
  MIC: 1 µg/mL (≈ 2.21 µM)
[7]
  MIC: 2 µg/mL (≈ 4.43 µM)
[20]
  Activity: Active
[21]
  Activity: Active
[22]
  Activity: Dose-Dependent Effect
[23]
  selectivity ratio: > 512
[24]
  Activity: Active
[8]
  MIC: 8 µg/mL (≈ 17.7 µM)
[25]
  Activity: Active
[26]
  Activity: Active
[27]
  Activity: Active
[10]
  HC50: > 512 µg/mL
[28]
  Activity: Active
[29]
  Activity: Active
[11]
  MIC: 8 µg/mL (≈ 17.7 µM)
[30]
  Ratio: 8
[31]
  inhibition: Dose-Dependent Effect
[32]
  Activity: Dose-Dependent Effect
[33]
  inhibition (INH): 15%
[34]
  Activity: Active
[12]
  MIC: 8 µg/mL (≈ 17.7 µM)
[35]
  Activity: Active
[36]
  Activity: Tde
[37]
  Activity: Active
[38]
  inhibition: Dose-Dependent Effect
[13]
  MIC: 32 µg/mL (≈ 70.9 µM)

## Cc1ccc(N/N=C2\C(=O)N(CC(O)CSc3nnnn3C)c3ccccc32)cc1 (centres undefined)
[1]
  MIC: 2 µg/mL (≈ 4.72 µM)
[2]
  MIC: 8 µg/mL (≈ 18.9 µM)
[3]
  MIC: 16 µg/mL (≈ 37.8 µM)
[4]
  MIC: 64 µg/mL (≈ 151 µM)
[5]
  MIC: 8 µg/mL (≈ 18.9 µM)
[6]
  MIC: 2 µg/mL (≈ 4.72 µM)
[7]
  MIC: 16 µg/mL (≈ 37.8 µM)
[8]
  MIC: 4 µg/mL (≈ 9.45 µM)
[9]
  Ratio: 2
[10]
  HC50: 383 µg/mL
[11]
  MIC: 4 µg/mL (≈ 9.45 µM)
[12]
  MIC: 2 µg/mL (≈ 4.72 µM)
[13]
  MIC: 32 µg/mL (≈ 75.6 µM)

## Cn1nnnc1SCC(O)CN1C(=O)/C(=N\Nc2ccc(Cl)cc2)c2ccccc21 (centres undefined)
[1]
  MIC: 1 µg/mL (≈ 2.25 µM)
[2]
  MIC: 16 µg/mL (≈ 36 µM)
[3]
  MIC: 256 µg/mL (≈ 577 µM)
[4]
  MIC: 4 µg/mL (≈ 9.01 µM)
[5]
  MIC: 64 µg/mL (≈ 144 µM)
[6]
  MIC: 16 µg/mL (≈ 36 µM)
[7]
  MIC: 2 µg/mL (≈ 4.51 µM)
[8]
  MIC: 32 µg/mL (≈ 72.1 µM)
[9]
  Ratio: 2
[10]
  HC50: > 512 µg/mL
[11]
  MIC: 32 µg/mL (≈ 72.1 µM)
[12]
  MIC: 32 µg/mL (≈ 72.1 µM)
[13]
  MIC: 16 µg/mL (≈ 36 µM)

## CCn1cc(C(=O)O)c(=O)c2cc(F)c(N3CCNCC3)cc21 [NORFLOXACIN]
[1]
  MIC: 4 µg/mL (≈ 12.5 µM)
[2]
  MIC: 8 µg/mL (≈ 25.1 µM)
[3]
  MIC: 2 µg/mL (≈ 6.26 µM)
[39]
  Activity: Active
[17]
  Activity: Active
[4]
  MIC: 2 µg/mL (≈ 6.26 µM)
[5]
  MIC: 4 µg/mL (≈ 12.5 µM)
[6]
  MIC: 8 µg/mL (≈ 25.1 µM)
[7]
  MIC: 2 µg/mL (≈ 6.26 µM)
[8]
  MIC: 4 µg/mL (≈ 12.5 µM)
[11]
  MIC: 4 µg/mL (≈ 12.5 µM)
[12]
  MIC: 2 µg/mL (≈ 6.26 µM)
[13]
  MIC: 8 µg/mL (≈ 25.1 µM)
